Here are results for 36 compounds from ChEMBL document CHEMBL5143660, “Investigation on the chemical space of the substituted triazole thio-benzoxazepinone RIPK1 inhibitors” (Eur J Med Chem, 2022).

A value given as a limit tells only on which side of the number the result lay.

A short description of data set [1]: Cytotoxicity against human HT-29 cells assessed as reduction in cell viability. The format is toxicity, cell-based.
The test system of a further data set is HT-29. Kind of data set: Anti-necroptic activity in human HT-29 cells assessed as inhibition of TSZ induced necroptosis measured after 16 to 24 hrs by celltiter-glo luminescent cell viability assay. Format: functional, cell-based. (In general: In ATP-based viability assays light output follows the ATP content of the culture.)
The target of data set [2] is T1, Receptor-interacting serine/threonine-protein kinase 1 (Homo sapiens, UniProt Q13546).
T1 sequence (Q13546 whole entry): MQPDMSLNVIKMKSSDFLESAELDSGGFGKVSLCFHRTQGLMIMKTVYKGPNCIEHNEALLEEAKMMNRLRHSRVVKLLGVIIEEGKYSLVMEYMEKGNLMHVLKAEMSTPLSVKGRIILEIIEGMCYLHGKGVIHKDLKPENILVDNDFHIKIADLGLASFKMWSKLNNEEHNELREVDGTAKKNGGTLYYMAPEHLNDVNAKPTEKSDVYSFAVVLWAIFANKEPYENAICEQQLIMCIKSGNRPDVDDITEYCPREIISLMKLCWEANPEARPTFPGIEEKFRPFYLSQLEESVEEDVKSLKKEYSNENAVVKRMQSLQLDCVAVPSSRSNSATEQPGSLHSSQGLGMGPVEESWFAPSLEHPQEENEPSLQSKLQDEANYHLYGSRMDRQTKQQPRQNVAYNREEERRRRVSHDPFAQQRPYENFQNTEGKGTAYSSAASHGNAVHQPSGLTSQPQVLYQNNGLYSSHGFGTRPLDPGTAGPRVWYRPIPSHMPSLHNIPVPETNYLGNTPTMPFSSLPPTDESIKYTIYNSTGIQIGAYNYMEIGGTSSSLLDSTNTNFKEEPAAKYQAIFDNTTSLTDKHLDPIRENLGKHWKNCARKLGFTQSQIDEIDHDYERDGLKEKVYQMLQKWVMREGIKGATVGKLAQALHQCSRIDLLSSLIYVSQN
As to the kind of experiment: Binding affinity to wild-type human partial length RIPK1 (M1 to K305 residues) expressed in bacterial expression system incubated for 1 hr under shaking condition by Kinomescan method.

Regarding `CN1C(=S)[C@@H](NC(=O)c2nc(Cc3ccccc3)n(CCCCC#N)n2)COc2ccccc21`, the CC50 in data set [1] was greater than 100 µM. Besides, in the data set with HT-29, the EC50 was 2.68 µM.

As for `CCCCn1nc(C(=O)N[C@H]2COc3ccccc3N(C)C2=S)nc1Cc1ccccc1`, the CC50 in data set [1] is greater than 100 µM. Further, in the data set on HT-29, the EC50 is 0.51 µM.

As to `CN1C(=S)[C@@H](NC(=O)c2nc(Cc3ccccc3)n(-c3ncccn3)n2)COc2ccccc21`, the CC50 in data set [1] is greater than 100 µM. The EC50 with HT-29 was 3.97 µM.

For `CN1C(=S)[C@@H](NC(=O)c2nc(Cc3ccccc3)n(C3CCOC3)n2)COc2ccccc21` (stereo not given in full), the CC50 in data set [1] was greater than 100 µM. This compound gave a Kd in data set [2] of 0.272 µM. For the same compound, in the data set on HT-29, the EC50 was 1.58 µM.

Take `CN1C(=S)[C@@H](NC(=O)c2nc(Cc3ccccc3)n(CCCF)n2)COc2ccccc21`: the CC50 in data set [1] is greater than 100 µM. The EC50 with HT-29 turned out to be 4.76 µM.

On to `CC(C)Cn1nc(C(=O)N[C@H]2COc3ccccc3N(C)C2=S)nc1Cc1ccccc1`, for which the CC50 in data set [1] is greater than 100 µM. The EC50 in the data set with HT-29 is 1.23 µM.

`CN1C(=S)[C@@H](NC(=O)c2nc(Cc3ccccc3)n(CC3COC3)n2)COc2ccccc21`: the CC50 in data set [1] was greater than 100 µM. Besides, in the data set on HT-29, the concentration for a half-maximal effect (EC50) is 2.83 µM.

For the compound `CN1C(=S)[C@@H](NC(=O)c2nc(Cc3ccccc3)n(CC(F)F)n2)COc2ccccc21`, the CC50 in data set [1] was greater than 100 µM. For the same compound, the EC50 in the data set on HT-29 stood at 0.0089 µM.

With `CN1C(=S)[C@@H](NC(=O)c2nc(Cc3ccccc3)n(C3CCC3)n2)COc2ccccc21`, the CC50 in data set [1] is greater than 100 µM. Further, the Kd in data set [2] was determined as 0.301 µM. In the data set on HT-29, the EC50 was determined as 0.181 µM.

With `COCCn1nc(C(=O)N[C@H]2COc3ccccc3N(C)C2=S)nc1Cc1ccccc1`, the CC50 in data set [1] is greater than 100 µM. Besides, in the data set on HT-29, the EC50 turned out to be 0.566 µM.

With `CN1C(=O)[C@@H](NC(=O)c2nnc(Cc3ccccc3)[nH]2)COc2ccccc21` [GSK2982772], the CC50 in data set [1] was greater than 50 µM.

Consider `CN1C(=S)[C@@H](NC(=O)c2nc(Cc3ccccc3)n(CC3CCOC3)n2)COc2ccccc21` (stereo not given in full), for which the CC50 in data set [1] was greater than 100 µM. The EC50 in the data set on HT-29 amounted to 4.42 µM.

On to `CN1C(=S)[C@@H](NC(=O)c2n[nH]c(Cc3ccccc3)n2)COc2ccccc21`, for which the CC50 in data set [1] was greater than 50 µM. In data set [2], this compound returned a dissociation constant (Kd) of 0.031 µM.

For `Cc1cnc(-n2nc(C(=O)N[C@H]3COc4ccccc4N(C)C3=S)nc2Cc2ccccc2)nc1`, in data set [1], the CC50 was greater than 100 µM. Besides, the EC50 with HT-29 worked out at 1.95 µM.

In the case of `CN1C(=S)[C@@H](NC(=O)c2nc(Cc3ccccc3)n(C3COC3)n2)COc2ccccc21`, the cytotoxic concentration (CC50) in data set [1] is greater than 100 µM. The EC50 with HT-29 worked out at 0.916 µM.

In the case of `CN1C(=S)[C@@H](NC(=O)c2nc(Cc3ccccc3)n(CCCC(F)(F)F)n2)COc2ccccc21`, the CC50 in data set [1] is greater than 100 µM. For the same compound, the EC50 with HT-29 came out at 2.38 µM.

Turning to `CN1C(=S)[C@@H](NC(=O)c2nc(Cc3ccccc3)n(CC(F)(F)F)n2)COc2ccccc21`, in data set [1], the CC50 was greater than 100 µM. Besides, the Kd in data set [2] was 0.267 µM. The EC50 with HT-29 came to 0.036 µM.

With `CN1C(=S)[C@@H](NC(=O)c2nc(Cc3ccccc3)n(C3CCCC3)n2)COc2ccccc21`, the CC50 in data set [1] was greater than 100 µM. In addition, the EC50 in the data set with HT-29 came to 3.53 µM.

As to `CN1C(=S)[C@@H](NC(=O)c2nc(Cc3ccccc3)n(CCCO)n2)COc2ccccc21`, in data set [1], the CC50 is greater than 100 µM. For the same compound, the EC50 with HT-29 came to 0.208 µM.

Turning to `CC(C)n1nc(C(=O)N[C@H]2COc3ccccc3N(C)C2=S)nc1Cc1ccccc1`, the CC50 in data set [1] is greater than 100 µM. Besides, the EC50 in the data set with HT-29 came out at 0.36 µM.

In the case of `CN1C(=S)[C@@H](NC(=O)c2nc(Cc3ccccc3)n(CC3CCOCC3)n2)COc2ccccc21`, in data set [1], the cytotoxic concentration (CC50) is greater than 100 µM. The EC50 with HT-29 was 6.31 µM.

Turning to `CN1C(=S)[C@@H](NC(=O)c2nc(Cc3ccccc3)n(C3CCOCC3)n2)COc2ccccc21`, the CC50 in data set [1] was greater than 100 µM. In addition, the EC50 with HT-29 amounted to 2.26 µM.

As to `CN1C(=S)[C@@H](NC(=O)c2nc(Cc3ccccc3)n(CCC(F)(F)F)n2)COc2ccccc21`, in data set [1], the CC50 is greater than 100 µM. In addition, in the data set with HT-29, the EC50 turned out to be 1.55 µM.

In the case of `CN1C(=S)[C@@H](NC(=O)c2nc(Cc3ccccc3)n(C3CCNCC3)n2)COc2ccccc21`, the CC50 in data set [1] is greater than 100 µM. Further, the EC50 in the data set on HT-29 was determined as 1 µM.

As to `CN1C(=S)[C@@H](NC(=O)c2nc(Cc3ccccc3)n(C3CCCCCC3)n2)COc2ccccc21`, the CC50 in data set [1] was greater than 100 µM. Further, the EC50 with HT-29 came to 5.53 µM.

`CCCn1nc(C(=O)N[C@H]2COc3ccccc3N(C)C2=S)nc1Cc1ccccc1`: the half-maximal cytotoxic concentration (CC50) in data set [1] was greater than 100 µM. Besides, the EC50 in the data set on HT-29 amounted to 0.288 µM.

Regarding `CCn1nc(C(=O)N[C@H]2COc3ccccc3N(C)C2=S)nc1Cc1ccccc1`, the CC50 in data set [1] is greater than 100 µM. In addition, in data set [2], binding was put at a Kd of 0.079 µM. In addition, the EC50 in the data set on HT-29 was determined as 0.017 µM.

On to `CN1C(=S)[C@@H](NC(=O)c2nc(Cc3ccccc3)n(CCCC#N)n2)COc2ccccc21`, for which the CC50 in data set [1] is greater than 100 µM. Besides, the EC50 with HT-29 came out at 2.4 µM.

For `CN1C(=S)[C@@H](NC(=O)c2nc(Cc3ccccc3)n(C3CCNC3)n2)COc2ccccc21` (stereo not given in full), in data set [1], the CC50 was greater than 100 µM. In addition, the EC50 in the data set on HT-29 stood at 1.07 µM.

Take `CCCCCn1nc(C(=O)N[C@H]2COc3ccccc3N(C)C2=S)nc1Cc1ccccc1`: the CC50 in data set [1] is greater than 100 µM. Moreover, the EC50 in the data set with HT-29 was found to be 0.805 µM.

As for `CN1C(=S)[C@@H](NC(=O)c2nc(Cc3ccccc3)n(C3CCN(C(=O)OC(C)(C)C)C3)n2)COc2ccccc21` (stereo not given in full), the CC50 in data set [1] was greater than 100 µM. The half-maximal effective concentration (EC50) in the data set with HT-29 was greater than 10 µM.

As to `CN1C(=S)[C@@H](NC(=O)c2nc(Cc3ccccc3)n(C3CCN(C(=O)OC(C)(C)C)CC3)n2)COc2ccccc21`, the CC50 in data set [1] is greater than 100 µM. The half-maximal effective concentration (EC50) with HT-29 was greater than 10 µM.

`CN1C(=S)[C@@H](NC(=O)c2nc(Cc3ccccc3)n(Cc3ccccc3)n2)COc2ccccc21`: the CC50 in data set [1] is greater than 100 µM. Further, the EC50 in the data set on HT-29 amounted to 0.414 µM.

With `CN1C(=S)[C@@H](NC(=O)c2nc(Cc3ccccc3)n(CCCCCC#N)n2)COc2ccccc21`, the CC50 in data set [1] is greater than 100 µM. For the same compound, in the data set on HT-29, the EC50 was determined as 3.83 µM.

With `CC(C)CCn1nc(C(=O)N[C@H]2COc3ccccc3N(C)C2=S)nc1Cc1ccccc1`, in data set [1], the half-maximal cytotoxic concentration (CC50) was greater than 100 µM. The EC50 with HT-29 was determined as 3.64 µM.

With `CN1C(=S)[C@@H](NC(=O)c2nc(Cc3ccccc3)n(C3CCCCC3)n2)COc2ccccc21`, the CC50 in data set [1] was greater than 100 µM. In addition, the EC50 in the data set on HT-29 was determined as 4 µM.

What is called CC50 is the concentration at which the toxic effect on the cells reaches its halfway point. What is called EC50 is the concentration needed to bring the measured effect to its halfway point. In general, Kd refers to the concentration at which binding is half-saturated. A higher Kd goes with a looser complex.
